# Assay results published in PMC12363342, “Investigating the N-terminal linker histone H1 subtypes as substrates for JmjC lysine demethylases” (RSC Chemical Biology, 2025).
# Square brackets hold non-standard residues; d marks the D form. Ends that are not written are not given here. Lys(Me3) = C[N+](C)(C)CCCC[C@H](N)C(=O)O; Lys(Me2) = CN(C)CCCC[C@H](N)C(=O)O
# Key:
# KDM4E = biological target: T1, KDM4E (Homo sapiens, UniProt B2RXH2); assay: LC-MS demethylation activity assay, KDM4E; type: biochemical; settings: room temperature; for KDM4E demethylation activity, D: D (di-) initial methylation state; for KDM4E demethylation activity, M: M (mono-) initial methylation state
# T1 construct: KDM4DM1-L359,[39]; KDM4EM1-R336,[30]; His6 (N); made in house; host or cells: Escherichia coli
# T1 sequence (B2RXH2 1-336): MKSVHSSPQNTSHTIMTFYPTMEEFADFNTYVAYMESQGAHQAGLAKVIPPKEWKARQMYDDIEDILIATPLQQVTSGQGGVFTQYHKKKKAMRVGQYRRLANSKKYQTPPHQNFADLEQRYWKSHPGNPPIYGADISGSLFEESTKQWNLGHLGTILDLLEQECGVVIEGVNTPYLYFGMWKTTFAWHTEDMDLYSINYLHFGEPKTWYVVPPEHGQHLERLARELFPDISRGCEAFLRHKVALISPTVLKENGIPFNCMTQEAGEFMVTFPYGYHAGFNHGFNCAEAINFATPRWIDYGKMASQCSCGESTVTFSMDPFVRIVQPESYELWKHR
# Protocol: (§1) The substrate specificity of JmjC KDMs for H1 was examined using liquid chromatography coupled to mass spectrometry (LC-MS) assays. The H1 peptides (10 μM) were incubated with the recombinant KDM (2 μM) in HEPES buffer at pH 7.5 at room temperature for 2 h, in the presence of ferrous(II) ammonium sulfate (FAS, 10 μM), sodium ascorbate (LAA, 100 μM) and 2OG (20 μM), and then quenched with formic acid. N^ε-Methylated H3K9 and H3K36 peptides were used as positive controls (Fig. 3–5 and Fig. S2–S6).[26]
# (§2) The catalytic domains of the JmjC KDMs used were recombinantly produced as reported in either Escherichia coli (KDM4AM1-L359,[38] KDM4DM1-L359,[39] KDM4EM1-R336,[30] KDM6BD1141–E1590[40] and KDM3CL2157-L2500) or Sf9 cells (KDM3AT515–S1317, KDM3B882–1761, and KDM5DM1-D775) as N-terminally His6-tagged proteins. […] To produce proteins, DNA sequences encoding for KDM3A, KDM3B and KDM5D were inserted into the pFB-LIC vector, containing a TEV-protease cleavable N-terminal 6x-histidine tag via ligation independent cloning (LIC). The resultant plasmids were transformed into baculovirus and Sf9 cells ([…]) which were infected with the virus stock. The cells were grown at 27 °C and 90 rpm for 70 h. Cells were then harvested and suspended in 100 mL of lysis buffer (50 mM HEPES-NaOH, pH 7.4, 500 mM NaCl, 20 mM imidazole, 0.5 mM Tris (2-carboxyethyl)phosphine (TCEP), 5% (v/v) glycerol). […] The supernatant was loaded onto a Ni-NTA gravity column, washed with 10 column volume of lysis buffer and eluted using the elution buffer (50 mM HEPES-NaOH, pH 7.4, 500 mM NaCl, 300 mM imidazole, 0.5 mM TCEP, 5% (v/v) glycerol). The eluted protein was further purified using S200 gel filtration column chromatography (50 mM HEPES-NaOH, pH 7.4, 150 mM NaCl, 0.5 mM TCEP and 5% glycerol). Protein purity was analysed by SDS-PAGE and further confirmed by mass spectrometry. Selected fractions were pooled, concentrated and stored at −80 °C.
# (§3) All reagents were purchased from Sigma Aldrich and were of the highest grade available. Ferrous(II) ammonium sulfate (FAS) solutions were prepared freshly by dissolving FAS to 400 mM in 20 mM HCl with subsequent dilution to 1 mM using deionized water. Fresh 2OG (10 mM) and LAA (50 mM) solutions were prepared by dissolving the solids in deionised water. All enzyme reactions were performed in 384-well plates (Greiner Bio-One) with a final reaction volume of 50 μL. Substrate mixtures contained 50 mM HEPES pH 7.5, LAA (100 μM), FAS (10 μM), 2OG (20 μM) and an H1 isoform peptide (10 μM). Reactions were initiated by the addition of enzyme to a final concentration of 2.0 μM. After 2 h, the reactions were stopped by the addition of 5 μL of 10% (v/v) LC-MS grade formic acid (Fisher Scientific) to a final concentration of 1% (v/v). Product analyses were performed by liquid chromatography-mass spectrometry (LC-MS) using an Agilent 1290 infinity II LC system equipped with an Agilent 1290 multisampler and an Agilent 1290 high speed pump and connected to an Agilent 6550 accurate mass iFunnel quadrupole time of flight (Q-TOF) mass spectrometer. 1 μL of the reaction mixture was injected onto a 1.8 μm × 2.1 × 50 mm ZORBAX RRHD Eclipse Plus C18 column (Agilent). Solvent A consisted of HPLC grade water containing 0.1% (v/v) formic acid and solvent B consisted of MeCN containing 0.1% (v/v) formic acid. Peptides were separated using a stepwise gradient (0 min – 95% solvent A, 1.0 min – 80% solvent A, 3.0 min – 45% solvent A, 4.0 min – 45% solvent A, 5.0 min – 0% solvent A, 6.0 min – 0% solvent A, 7.0 min – 95% solvent A). This was followed by a 3 min post-run with 95% solvent A to re-equilibrate the column. All flow rates were 0.2 mL min^−1. A blank injection of HPLC grade water was carried out between each sample injection.
# KDM4D = biological target: T2, KDM4D (Homo sapiens, UniProt Q6B0I6); assay: LC-MS demethylation activity assay, KDM4D; type: biochemical; settings: room temperature; for KDM4D demethylation activity, D: D (di-) initial methylation state; for KDM4D demethylation activity, M: M (mono-) initial methylation state
# T2 construct: KDM4AM1-L359,[38]; KDM4DM1-L359,[39]; KDM4EM1-R336,[30]; His6 (N); made in house; host or cells: Escherichia coli
# T2 sequence (Q6B0I6 1-359): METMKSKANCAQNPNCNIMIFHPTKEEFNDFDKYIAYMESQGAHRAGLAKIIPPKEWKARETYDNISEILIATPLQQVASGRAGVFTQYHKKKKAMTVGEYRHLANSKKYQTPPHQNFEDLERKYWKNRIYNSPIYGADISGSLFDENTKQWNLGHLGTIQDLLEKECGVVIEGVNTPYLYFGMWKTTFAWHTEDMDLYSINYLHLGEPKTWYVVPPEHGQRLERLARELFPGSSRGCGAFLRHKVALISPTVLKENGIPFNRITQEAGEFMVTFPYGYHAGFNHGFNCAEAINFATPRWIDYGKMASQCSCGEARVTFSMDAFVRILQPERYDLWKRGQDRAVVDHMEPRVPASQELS
# Protocol: as §1, §2, §3
# KDM3B = assay: LC-MS demethylation activity assay, KDM3B; type: biochemical, human; settings: 2 μM KDM, 10 μM H1/H3 peptide, 10 μM FAS, 100 μM LAA, 20 μM 2OG, 50 mM HEPES pH 7.5, 2 h, room temperature; for KDM3B demethylation activity, D: D (di-) initial methylation state; for KDM3B demethylation activity, M: M (mono-) initial methylation state
# Protocol: as §1, §2, §3
# KDM5D = assay: LC-MS demethylation activity assay, KDM5D; type: biochemical, human; settings: 2 μM KDM, 10 μM H1/H3 peptide, 10 μM FAS, 100 μM LAA, 20 μM 2OG, 50 mM HEPES pH 7.5, 2 h, room temperature; for KDM5D demethylation activity, D: D (di-) initial methylation state; for KDM5D demethylation activity, M: M (mono-) initial methylation state
# Protocol: as §1, §2, §3
# KDM4A = assay: LC-MS demethylation activity assay, KDM4A; type: biochemical, human; settings: 10 μM FAS, 100 μM LAA, 20 μM 2OG, room temperature; for KDM4A demethylation activity, D: D (di-) initial methylation state; for substrate conversion (demethylation) by KDM4A: 2 μM KDM4A, 10 μM peptide, HEPES pH 7.5, 2 h; for KDM4A demethylation activity, M: M (mono-) initial methylation state
# Protocol: as §1, §2, §3
# KDM3C = assay: LC-MS demethylation activity assay, KDM3C; type: biochemical, human; settings: 2 μM KDM, 10 μM H1/H3 peptide, 10 μM FAS, 100 μM LAA, 20 μM 2OG, 50 mM HEPES pH 7.5, 2 h, room temperature; for KDM3C demethylation activity, D: D (di-) initial methylation state; for KDM3C demethylation activity, M: M (mono-) initial methylation state
# Protocol: as §1, §2, §3
# KDM3A = assay: LC-MS demethylation activity assay, KDM3A; type: biochemical, human; settings: 2 μM KDM, 10 μM H1/H3 peptide, 10 μM FAS, 100 μM LAA, 20 μM 2OG, 50 mM HEPES pH 7.5, 2 h, room temperature; for KDM3A demethylation activity, D: D (di-) initial methylation state; for KDM3A demethylation activity, M: M (mono-) initial methylation state
# Protocol: as §1, §2, §3
# KDM6B = assay: LC-MS demethylation activity assay, KDM6B; type: biochemical, human; settings: 2 μM KDM, 10 μM H1/H3 peptide, 10 μM FAS, 100 μM LAA, 20 μM 2OG, 50 mM HEPES pH 7.5, 2 h, room temperature; for KDM6B demethylation activity, D: D (di-) initial methylation state; for KDM6B demethylation activity, M: M (mono-) initial methylation state
# Protocol: as §1, §2, §3
# [1] = 2 μM KDM, 10 μM H1/H3 peptide, 10 μM FAS, 100 μM LAA, 20 μM 2OG, 50 mM HEPES pH 7.5, 2 h
# [2] = 2 μM KDM, 10 μM H1/H3 peptide, 50 mM HEPES pH 7.5, 2 h
# [3] = 2 μM KDM4D, 10 μM peptide, standard conditions, 2 h
# [4] = 2 μM KDM, 10 μM H1/H3 peptide, 10 μM FAS, 100 μM LAA, 20 μM 2OG, 50 mM HEPES pH 7.5, 2 h, T (tri-) initial methylation state
# [5] = T (tri-) initial methylation state
Substance,"KDM4E demethylation activity, D (KDM4E; [1])","KDM4D demethylation activity, D (KDM4D; [1])","KDM3B demethylation activity, D (KDM3B)","KDM5D demethylation activity, D (KDM5D)","KDM4A demethylation activity, D (KDM4A; [2])","KDM3C demethylation activity, D (KDM3C)","KDM3A demethylation activity, D (KDM3A)","KDM6B demethylation activity, D (KDM6B)","KDM4E demethylation activity, M (KDM4E; [1])","KDM4D demethylation activity, M (KDM4D; [1])","KDM3B demethylation activity, M (KDM3B)","KDM5D demethylation activity, M (KDM5D)","KDM4A demethylation activity, M (KDM4A; [2])","KDM3C demethylation activity, M (KDM3C)","KDM3A demethylation activity, M (KDM3A)","KDM6B demethylation activity, M (KDM6B)",further results
"KKKATK[Lys(Me2)]AAGAGAAK [Peptide H1.5K26me2, 15-mer linker histone H1.5 residues 20-34 peptide, di-methylated K26]",● [green] (green dots indicate good demethylation (>50% conversion)),● [black] (black dots indicate low-level demethylation (<10% conversion)),● [red],● [red],● [red],● [red],● [red],● [red],–,–,–,–,–,–,–,–,"substrate conversion (demethylation) by KDM4E (KDM4E; 2 μM KDM4E, 10 μM peptide, 10 μM FAS, 100 μM LAA, 20 μM 2OG, HEPES pH 7.5, 2 h): > 40%"
"KKKA[Lys(Me2)]KAGATAGKRK [Peptide H1.3K24me2, 15-mer linker histone H1.3 residues 20-34 peptide, di-methylated K24]",● [green] (green dots indicate good demethylation (>50% conversion)),● [green] (green dots indicate good demethylation (>50% conversion)),● [red],● [red],● [yellow] (yellow dots indicate moderate demethylation (<50% conversion)),● [red],● [red],● [red],–,–,–,–,–,–,–,–,"unmethylated lysine product formed by KDM4E (KDM4E; 2 μM KDM4E, 10 μM peptide, standard conditions, 2 h): ~60%; mono-methylated product formed by KDM4D (KDM4D; [3]): ~53%; non-methylated product formed by KDM4D (KDM4D; [3]): ~8%; substrate conversion (demethylation) by KDM4A (KDM4A): ~23%"
"KKKAAKmeKAGGTPRKA [Peptide H1.2K25me, 15-mer linker histone H1.2 residues 20-34 peptide, mono-methylated K25]",–,–,–,–,–,–,–,–,● [red],● [red],● [red],● [red],● [red],● [red],● [red],● [red],–
"KKKAT[Lys(Me2)]KAAGAGAAK [Peptide H1.5K25me2, 15-mer linker histone H1.5 residues 20-34 peptide, di-methylated K25]",● [red],● [red],● [red],● [red],● [red],● [red],● [red],● [red],–,–,–,–,–,–,–,–,–
"KKKAK[Lys(Me2)]AGATAGKRK [Peptide H1.3K25me2, 15-mer linker histone H1.3 residues 20-34 peptide, di-methylated K25]",● [red],● [red],● [red],● [red],● [red],● [red],● [red],● [red],–,–,–,–,–,–,–,–,–
"KKKATKKmeAAGAGAAK [Peptide H1.5K26me, 15-mer linker histone H1.5 residues 20-34 peptide, mono-methylated K26]",–,–,–,–,–,–,–,–,● [red],● [red],● [red],● [red],● [red],● [red],● [red],● [red],–
"KKKAT[Lys(Me3)]KAAGAGAAK [Peptide H1.5K25me3, 15-mer linker histone H1.5 residues 20-34 peptide, tri-methylated K25]",–,–,–,–,–,–,–,–,–,–,–,–,–,–,–,–,"KDM4E demethylation activity, T (KDM4E; [4]): ● [red]; KDM4D demethylation activity, in words (KDM4D; [3]): No activity was observed; di-methylated product formed by KDM4D (KDM4D; [3]): < 5%; KDM4D demethylation activity, T (KDM4D; [4]): ● [red]; KDM3B demethylation activity, T (KDM3B; [5]): ● [red]; KDM5D demethylation activity, T (KDM5D; [5]): ● [red]; substrate conversion (demethylation) by KDM4A (KDM4A): < 10%; KDM4A demethylation activity, T (KDM4A; 2 μM KDM, 10 μM H1/H3 peptide, 50 mM HEPES pH 7.5, 2 h, T (tri-) initial methylation state): ● [yellow] (yellow dots indicate moderate demethylation (<50% conversion)); KDM3C demethylation activity, T (KDM3C; [5]): ● [red]; KDM3A demethylation activity, T (KDM3A; [5]): ● [red]; KDM6B demethylation activity, T (KDM6B; [5]): ● [red]"
"KKKATKmeKAAGAGAAK [Peptide H1.5K25me, 15-mer linker histone H1.5 residues 20-34 peptide, mono-methylated K25]",–,–,–,–,–,–,–,–,● [red],● [red],● [red],● [red],● [red],● [red],● [red],● [red],–
